The values that follow come from patent US20220268760A1, “ATRIAL CARDIAC MICROTISSUES FOR CHAMBER-SPECIFIC ARRHYTHMOGENIC TOXICITY RESPONSES” (Brown University, priority 2021, published 2022).

Test [1] deals with hiPSC-derived cardiomyocytes (MLC2v). Briefly: Flow cytometry of MLC2v expression in hiPSC-cardiomyocytes. In kind it is cell-based, human. The note with it: supplementation at days 3-6 of differentiation; without it 31±0.2, p<0.05; in % (unit assumed).
Description: Cardiomyocyte differentiation. The inventors differentiated atrial and ventricular cardiomyocytes ([…] ) from GCaMP6f-expressing human induced pluripotent stem cells (hiPSCs; WTC human iPSCs, Gladstone Institutes, San Francisco, Calif., USA) using small molecule modulations of Wnt signaling, as described previously by Burridge et al., Nature Methods, 11, 855-860 (2014), with slight modifications. hiPSCs were cultured on vitronectin coated plates in Essential 8 Medium (E8 media; Thermo Fisher Scientific, Waltham, Calif., USA). Before starting differentiation, hiPSCs were singularized, seeded onto Matrigel-coated plates in E8 media with 5 μM ROCK Inhibitor (RI; Thermo Fisher Scientific, Waltham, Calif., USA) and cultured to 80% confluency, at which point the cells were treated with 4.5 μM CHIR 99021 (Tocris Bioscience, Minneapolis, Minn., USA), a glycogen synthase kinase 3 (GSK3) inhibitor, for 24±1 hours in chemically defined medium CDM3 basal medium (RPMI 1640 Thermo Fisher Scientific, Waltham, Mass., USA) supplemented with L-ascorbic acid and human serum albumin). […] Samples were run on a BD FACSAriaTM Illu Flow Cytometer (BD Biosciences, San Jose, Calif.), and data were analyzed with FlowJo (BD Biosciences, San Jose, Calif.).
Test [2] deals with 3D ventricular microtissues (hiPSC-ventricular cardiomyocytes with 5% human cardiac fibroblasts). Kind of test: Optical mapping of action potentials of 3D ventricular microtissues under 1 Hz pacing. The test is classed as cell-based. The note with it: for APD30 / APD50 / APD80 / APDTri/APDMxR / Rise Time / APDMxR: mean ± SD. The procedure: (§1) 3D microtissue generation. Sterile 2% (wt/vol) agarose in PBS were pipetted into 35-microwell molds with hemispherical bottoms (FIG. 1C; 3D Petri Dish®, MicroTissues Inc., see MilliporeSigma, St. Louis, Mo., USA). After casted, hydrogels equilibrated in RPMI/B27 media with 1% Pen/Strep overnight in an incubator. Lactate-purified hiPSC-cardiomyocytes were then harvested, singularized, and suspended in RPMI/B27 media with 10% FBS and 1% Pen/Strep, collecting a subset of the cells for flow cytometry analysis of cTnT and MLC2v expression. […] Cells were allowed to settle into the cylindrical recesses for 30 minutes before adding media supplemented with 5 μM ROCK Inhibitor. Culture medium was changed one day post-seeding and replaced every other day. Self-assembling, spheroidal, and scaffold-free 3D microtissues were electrically field stimulated for six-eight days with a 1 Hz, 10.0 V, and 4.0 milliseconds duration bipolar pulse train (C-Pace EP, IonOptix, Westwood, Mass., USA) to precondition the microtissues before optical mapping. […] et al., Proc. Natl. Acad. Sci., U.S.A., 101, 18129-18134 (2004). The 3D microtissues beat synchronously with 1 Hz stimulation within two days, and tissue compaction were observed within three days post-seeding. Optical mapping of cardiac action potential. The inventors transferred hydrogels containing microtissues to a Petri dish on a temperature-controlled chamber (Dual Automatic Temperature Controller TC-344B, Warner Instrument, Hamden, Conn., USA) to maintain ambient temperatures of 35±1° C. throughout imaging. Microtissues were gently perfused in a solution containing (in mM) 140 NaCl, 5.1 KCl, 1 MgCl2, 1 CaCL2, 0.33 NaH2PO4, 5 HEPES, and 7.5 glucose warmed with an inline heater. Microtissues were allowed to equilibrate in the perfusion solution for thirty minutes and subsequently labeled with a voltage-sensitive dye (5 μM di-4-ANEPPS) for five minutes to enable membrane potential (Vm) recordings of action potential. Excess residual dyes were washed out thoroughly before data collection. An active-pixel sensor (CMOS sensor) camera acquired fluorescence images at 1000 frames-per-second, and action potential traces were reconstructed from fluorescence intensity data. Semi-automated analyses of action potential parameters were conducted using an in-house analysis software and included rise time, […] to maximum repolarization rate ([…]), and APD triangulation ([…]). Screening of arrhythmogenic compounds. […] Three molds of microtissues (two atrial cardiomyocytes and one ventricular cardiomyocytes) were used to test the compound 4-aminopyridine under 1 Hz electrical stimulation with a platinum field electrode (Myopacer EP field stimulator, IonOptix, Westwood, Mass., USA). […] At each dose, the microtissues were allowed to respond to the drug for five-ten minutes before action potential recordings were acquired. At least ten seconds of data were acquired per microtissue at each dose. Instead, three molds of atrial microtissues were used to test the compound ivabradine without electrical stimulation to investigate how action potential properties and spontaneous activity were altered in response to the drug.

The subject of test [3] is 3D atrial microtissues (hiPSC-atrial cardiomyocytes with 5% human cardiac fibroblasts). Briefly: Optical mapping of action potentials of 3D atrial microtissues under 1 Hz pacing. The test is classed as cell-based. The note with it: for APD30 / APD50 / APD80 / APDMxR / APDTri/APDMxR / Rise Time: mean ± SD. How it is done:
as §1

For test [4], the system named is 3D atrial microtissues (spontaneous activity, If channel). Briefly: Spontaneous action potential activity of atrial microtissues without electrical stimulation. The test is classed as cell-based, human. The procedure: 3D microtissue generation. Sterile 2% (wt/vol) agarose in PBS were pipetted into 35-microwell molds with hemispherical bottoms (FIG. 1C; 3D Petri Dish®, MicroTissues Inc., see MilliporeSigma, St. Louis, Mo., USA). After casted, hydrogels equilibrated in RPMI/B27 media with 1% Pen/Strep overnight in an incubator. Lactate-purified hiPSC-cardiomyocytes were then harvested, singularized, and suspended in RPMI/B27 media with 10% FBS and 1% Pen/Strep, collecting a subset of the cells for flow cytometry analysis of cTnT and MLC2v expression. […] Cells were allowed to settle into the cylindrical recesses for 30 minutes before adding media supplemented with 5 μM ROCK Inhibitor. Culture medium was changed one day post-seeding and replaced every other day. Self-assembling, spheroidal, and scaffold-free 3D microtissues were electrically field stimulated for six-eight days with a 1 Hz, 10.0 V, and 4.0 milliseconds duration bipolar pulse train (C-Pace EP, IonOptix, Westwood, Mass., USA) to precondition the microtissues before optical mapping. […] et al., Proc. Natl. Acad. Sci., U.S.A., 101, 18129-18134 (2004). The 3D microtissues beat synchronously with 1 Hz stimulation within two days, and tissue compaction were observed within three days post-seeding. Optical mapping of cardiac action potential. The inventors transferred hydrogels containing microtissues to a Petri dish on a temperature-controlled chamber (Dual Automatic Temperature Controller TC-344B, Warner Instrument, Hamden, Conn., USA) to maintain ambient temperatures of 35±1° C. throughout imaging. Microtissues were gently perfused in a solution containing (in mM) 140 NaCl, 5.1 KCl, 1 MgCl2, 1 CaCL2, 0.33 NaH2PO4, 5 HEPES, and 7.5 glucose warmed with an inline heater. Microtissues were allowed to equilibrate in the perfusion solution for thirty minutes and subsequently labeled with a voltage-sensitive dye (5 μM di-4-ANEPPS) for five minutes to enable membrane potential (Vm) recordings of action potential. Excess residual dyes were washed out thoroughly before data collection. An active-pixel sensor (CMOS sensor) camera acquired fluorescence images at 1000 frames-per-second, and action potential traces were reconstructed from fluorescence intensity data. Semi-automated analyses of action potential parameters were conducted using an in-house analysis software and included rise time, […] to maximum repolarization rate ([…]), and APD triangulation ([…]). Screening of arrhythmogenic compounds. […] Three molds of microtissues (two atrial cardiomyocytes and one ventricular cardiomyocytes) were used to test the compound 4-aminopyridine under 1 Hz electrical stimulation with a platinum field electrode (Myopacer EP field stimulator, IonOptix, Westwood, Mass., USA). […]

For `CC1=C(/C=C/C(C)=C/C=C/C(C)=C/C(=O)O)C(C)(C)CCC1` [Retinoic acid], the “MLC2v+ expression of cardiomyocytes” value in test [1] is 18±5.

Turning to `Nc1ccncc1` [4-Aminopyridine], the APD30 in test [2] (1 μM) worked out at 244.6 ± 38.4 ms; in test [2] (3 μM) it was 233.3 ± 35.8 ms; in test [2] (100 μM) it was 236.7 ± 32.5 ms; in test [3] (1 μM), 75.2 ± 11.4 ms; in test [3] (3 μM), 75.2 ± 11.4 ms; in test [3] (100 μM) it was 84.0 ± 10.6 ms. Also, the APD50 in test [2] (1 μM) was 287.8 ± 49.9 ms; in test [2] (3 μM), 275.7 ± 47.7 ms; in test [2] (100 μM), 280.0 ± 44.0 ms; in test [3] (1 μM), 95.7 ± 12.9 ms; in test [3] (3 μM), 97.5 ± 11.4 ms; in test [3] (100 μM), 104.8 ± 12.0 ms. The APD80 in test [2] (1 μM) is 329.6 ± 50.6 ms; in test [2] (3 μM) it was 321.6 ± 54.1 ms; in test [2] (100 μM) it was 325.6 ± 48.5 ms; in test [3] (1 μM), 121.4 ± 16.2 ms; in test [3] (3 μM) it was 123.5 ± 14.7 ms; in test [3] (100 μM), 129.9 ± 15.9 ms. The APDTri/APDMxR was 0.09 ± 0.01′ in test [2] (1 μM); 0.10 ± 0.02 in test [2] (3 μM); 0.10 ± 0.02 in test [2] (100 μM); 0.24 ± 0.03 in test [3] (1 μM); 0.24 ± 0.03 in test [3] (3 μM); 0.23 ± 0.03 in test [3] (100 μM). Moreover, the “Rise Time” value was determined as 6.9 ± 1.9 ms in test [2] (1 μM); 7.1 ± 2.4 ms in test [2] (3 μM); 7.5 ± 2.6 ms in test [2] (100 μM); 11.9 ± 2.6 ms in test [3] (1 μM, n=3 batches); 11.8 ± 2.2 ms in test [3] (3 μM); 14.0 ± 3.7 ms in test [3] (100 μM). In addition, the APDMxR in test [2] (3 μM) is listed as 307.5 ± 55.2 ms; in test [2] (100 μM) it was 312.5 ± 51.7 ms; in test [3] (1 μM), 126.6 ± 15.8 ms; in test [3] (3 μM), 128.3 ± 12.9 ms; in test [3] (100 μM) it was 136.6 ± 14.6 ms. The “Change of APD30, APD50, APD80 and APDMxR (in words)” value was “No significant changes” in test [2] (all dosages) and “significantly prolonged” in test [3] (increasing doses (1, 3, 100 μM)). Further, the “Change of rise time and APDTri (in words)” value in test [3] (100 μM) is on record as “significant increase”.

For the compound `COc1cc2c(cc1OC)CC(=O)N(CCCN(C)C[C@H]1Cc3cc(OC)c(OC)cc31)CC2` [Ivabradine], the “Effect on spontaneous activity (share of microtissues, in words)” value in test [4] (atrial microtissues, 1 μM, no electrical stimulation) is “eliminate spontaneous activity in more than half of the atrial microtissues”. Also, the “Effect on spontaneous action potential events (in words)” value in test [4] (atrial microtissues, all tested dosages) was “significantly reduced spontaneous action potential events”. Moreover, the “Effect on spontaneous activity (in words)” value in test [4] (atrial microtissues, higher dosages) is on record as “loss of spontaneous activity”. Besides, in test [4] (small subset of spontaneous atrial microtissues, 5 μM, recovered with 1 Hz pacing), the “Voltage trace events (in words)” value is recorded as “events resembling failed depolarization”.
